Results reported in patent US8574563B2 (Bristol-Myers Squibb Company, priority 2006, dated 2013).
Read-outs that look alike come from different tables or passages of the source.

Test system: HCV 1b-377-neo replicon cells
Assay: HCV replicon assay, HCV 1b-377-neo replicon cells (1b FRET)
Assay type: cell-based, Hepatitis C virus genotype 1b
Conditions: HCV 1b-377-neo replicon cells, HCV 1b genotype, read-out: EC50 range against HCV 1b (Table 2, Range)
How it was run: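 FRET-based replicon assay in HCV 1b-377-neo cells, including a comparison line carrying the NS5A Y2065H mutation that confers resistance to a reference compound.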

`COC(=O)NCC(=O)N1CCC[C@H]1c1ncc(-c2ccc(-c3ccc(-c4cnc([C@@H]5CCCN5C(=O)[C@@H](NC(=O)OC)C(C)C)[nH]4)cc3)cc2)[nH]1` [Example M73, methyl (2-((2S)-2-(5-(4′-(2-((2S)-1-((2S)-2-((methoxycarbonyl)amino)-3-methylbutanoyl)-2-pyrrolidinyl)-1H-imidazol-5-yl)-4-biphenylyl)-1H-imidazol-2-yl)-1-pyrrolidinyl)-2-oxoethyl)carbamate] gave an EC50 (Hepatitis C virus) of 100 to 999 nM.
`O=C(N[C@@H](C(=O)N1CCC[C@H]1c1ncc(-c2ccc(-c3ccc(-c4cnc([C@@H]5CCCN5C(=O)[C@H](NC(=O)[C@H]5CCCO5)c5ccccc5)[nH]4)cc3)cc2)[nH]1)c1ccccc1)[C@H]1CCCO1` [Example 25-1, (2R,2′R)-N,N′-(4,4′-biphenyldiylbis(1H-imidazole-5,2-diyl(2S)-2,1-pyrrolidinediyl((1R)-2-oxo-1-phenyl-2,1-ethanediyl)))ditetrahydro-2-furancarboxamide] showed an EC50 of 0.001 to 0.999 nM.
With `CCN(CC)[C@@H](C(=O)N1CCC[C@H]1c1ncc(-c2ccc(-c3ccc(-c4cnc([C@@H]5CCCN5C(=O)c5ncco5)[nH]4)cc3)cc2)[nH]1)c1ccccc1` [Example M37, (1R)-N,N-diethyl-2-((2S)-2-(5-(4′-(2-((2S)-1-(1,3-oxazol-2-ylcarbonyl)-2-pyrrolidinyl)-1H-imidazol-5-yl)-4-biphenylyl)-1H-imidazol-2-yl)-1-pyrrolidinyl)-2-oxo-1-phenylethanamine] the EC50 (Hepatitis C virus) was 1 to 99 nM.
For `CN(C)[C@@H](C(=O)N1CCC[C@H]1c1ncc(-c2ccc(-c3ccc(-c4cnc([C@@H]5CCCN5C(=O)Cc5ccsc5)[nH]4)cc3)cc2)[nH]1)c1ccccc1` [Example 94-48, (1R)-N,N-dimethyl-2-oxo-1-phenyl-2-((2S)-2-(5-(4′-(2-((2S)-1-(3-thienylacetyl)-2-pyrrolidinyl)-1H-imidazol-5-yl)-4-biphenylyl)-1H-imidazol-2-yl)-1-pyrrolidinyl)ethanamine], the EC50 (Hepatitis C virus) was 0.001 to 0.999 nM.
In the case of `CCOC(=O)c1nc([C@@H]2CCCN2C(=O)[C@H](NC(=O)OC)c2ccccc2)[nH]c1-c1ccc(-c2ccc(-c3cnc([C@@H]4CCCN4C(=O)[C@H](NC(=O)OC)c4ccccc4)[nH]3)cc2)cc1` [Example J19, ethyl 2-((2S)-1-((2R)-2-((methoxycarbonyl)amino)-2-phenylacetyl)-2-pyrrolidinyl)-5-(4′-(2-((2S)-1-((2R)-2-((mcthoxycarbonyl)amino)-2-phenylacetyl)-2-pyrrolidinyl)-1H-imidazol-5-yl)-4-biphenylyl)-1H-imidazole-4-carboxylate], the EC50 (Hepatitis C virus) is reported as 0.001 to 0.999 nM.
`COC(=O)N[C@@H](C(=O)N1CCC[C@H]1c1ncc(-c2ccc(-c3ccc(-c4cnc([C@@H]5CCCN5C(=O)CCC(C)=O)[nH]4)cc3)cc2)[nH]1)c1ccccc1` [Example 84-39, methyl ((1R)-2-oxo-2-((2S)-2-(5-(4′-(2-((2S)-1-(4-oxopentanoyl)-2-pyrrolidinyl)-1H-imidazol-5-yl)-4-biphenylyl)-1H-imidazol-2-yl)-1-pyrrolidinyl)-1-phenylethyl)carbamate] was tested, and the EC50 (Hepatitis C virus) was 0.001 to 0.999 nM.
`COC(=O)N[C@@H](C(=O)N1CCC[C@H]1c1ncc(-c2ccc(-c3ccc(-c4cnc([C@@H]5CCCN5C(=O)c5cnc[nH]5)[nH]4)cc3)cc2)[nH]1)c1ccccc1` [Example M65, methyl ((1R)-2-((2S)-2-(5-(4′-(2-((2S)-1-(1H-imidazol-5-ylcarbonyl)-2-pyrrolidinyl)-1H-imidazol-5-yl)-4-biphenylyl)-1H-imidazol-2-yl)-1-pyrrolidinyl)-2-oxo-1-phenylethyl)carbamate] was tested, and the EC50 (Hepatitis C virus) was 1 to 99 nM.
For `CCN(CC)[C@@H](C(=O)N1CCC[C@H]1c1ncc(-c2ccc(-c3ccc(-c4cnc([C@@H]5CCCN5C(=O)[C@H](Cc5cscn5)NC(=O)OC)[nH]4)cc3)cc2)[nH]1)c1ccccc1` [cj-80, methyl ((1S)-2-((2S)-2-(5-(4′-(2-((2S)-1-((2R)-2-(diethylamino)-2-phenylacetyl)-2-pyrrolidinyl)-1H-imidazol-5-yl)-4-biphenylyl)-1H-imidazol-2-yl)-1-pyrrolidinyl)-2-oxo-1-(1,3-thiazol-4-ylmethyl)ethyl)carbamate], the EC50 (Hepatitis C virus) was 0.001 to 0.999 nM.
With `COC(=O)N[C@@H](C(=O)N[C@@H](C)c1ncc(-c2ccc(-c3cnc(-c4cnc([C@@H]5CCCN5C(=O)[C@H](NC(=O)OC)c5ccccc5)[nH]4)cn3)cc2)[nH]1)c1ccccc1` [Example 152j-28, methyl ((1R)-2-((2S)-2-(5-(5-(4-(2-((1S)-1-(((2R)-2-((methoxycarbonyl)amino)-2-phenylacetyl)amino)ethyl)-1H-imidazol-5-yl)phenyl)-2-pyrazinyl)-1H-imidazol-2-yl)-1-pyrrolidinyl)-2-oxo-1-phenylethyl)carbamate] the EC50 (Hepatitis C virus) was 0.001 to 0.999 nM.
With `CNC(=O)N[C@@H](C(=O)N1CCC[C@H]1c1ncc(-c2ccc(-c3ccc(-c4cnc([C@@H]5CCCN5C(=O)[C@H](NC(=O)NC)c5ccccc5)[nH]4)cc3)cc2)[nH]1)c1ccccc1` [Example 24-4b, N′,N′′′-(4,4′-biphenyldiylbis(1H-imidazole-5,2-diyl(2S)-2,1-pyrrolidinediyl((1R)-2-oxo-1-phenyl-2,1-ethanediyl)))bis(1-methylurea)] the EC50 (Hepatitis C virus) was 1 to 99 nM.
`COCC[C@H](NC(=O)OC)C(=O)N1CCC[C@H]1c1ncc(-c2ccc(-c3ccc(-c4cnc([C@@H]5CCCN5C(=O)[C@@H](NC(=O)OC)C(C)C)[nH]4)cc3)cc2)[nH]1` [cj-119, methyl ((1S)-1-(((2S)-2-(5-(4′-(2-((2S)-1-(N-(methoxycarbonyl)-O-methyl-L-homoseryl)-2-pyrrolidinyl)-1H-imidazol-5-yl)-4-biphenylyl)-1H-imidazol-2-yl)-1-pyrrolidinyl)carbonyl)-2-methylpropyl)carbamate] gave an EC50 (Hepatitis C virus) of 0.001 to 0.999 nM.
`COC(=O)N[C@@H](Cc1ccc(OP(=O)(O)OC)cc1)C(=O)N1CCC[C@H]1c1ncc(-c2ccc(-c3ccc(-c4cnc([C@@H]5CCCN5C(=O)[C@@H](NC(=O)OC)C(C)C)[nH]4)cc3)cc2)[nH]1` [cj-91, methyl ((1S)-1-(((2S)-2-(5-(4′-(2-((2S)-1-(O-(hydroxy(methoxy)phosphoryl)-N-(methoxycarbonyl)-L-tyrosyl)-2-pyrrolidinyl)-1H-imidazol-5-yl)-4-biphenylyl)-1H-imidazol-2-yl)-1-pyrrolidinyl)carbonyl)-2-methylpropyl)carbamate] was tested, and the EC50 (Hepatitis C virus) was 0.001 to 0.999 nM.
Work on “methyl (2-((2S)-2-(5-(4′-(2-((2S)-1-((2R)-2- (dimethylamino)-2-phenylacetyl)-2- pyrrolidinyl)-1H-imidazol-5-yl)-4-biphenylyl)- 1H-imidazol-2-yl)-1-pyrrolidinyl)-2- oxoethyl)carbamate [Example 91]” yielded an EC50 of 0.001 to 0.999 nM.
Work on `CCN(CC)C(C)C(=O)N1CCC[C@H]1c1nc(C(F)(F)F)c(-c2ccc(-c3ncc(-c4cnc([C@@H]5CCCN5C(=O)[C@@H](C)N(CC)CC)[nH]4)cn3)cc2)[nH]1` (stereo in doubt) [Example J51, (2R)-1-((2S)-2-(5-(4-(5-(2-((2S)-1-((2R)-2-(diethylamino)propanoyl)-2-pyrrolidinyl)-1H-imidazol-5-yl)-2-pyrimidinyl)phenyl)-4-(trifluoromethyl)-1H-imidazol-2-yl)-1-pyrrolidinyl)-N,N-diethyl-1-oxo-2-propanamine] yielded an EC50 (Hepatitis C virus) of 1 to 99 nM.
`CCN(CC)[C@@H](C(=O)N1CCC[C@H]1c1ncc(-c2ccc(-c3ccc(-c4cnc([C@@H]5CCCN5C(=O)[C@@H](C(C)C)N(CC)CC)[nH]4)cc3)cc2)[nH]1)c1ccccc1` [Example M45, (2R)-1-((2S)-2-(5-(4′-(2-((2S)-1-((2R)-2-(diethylamino)-2-phenylacetyl)-2-pyrrolidinyl)-1H-imidazol-5-yl)-4-biphenylyl)-1H-imidazol-2-yl)-1-pyrrolidinyl)-N,N-diethyl-3-methyl-1-oxo-2-butanamine] showed an EC50 (Hepatitis C virus) of 1 to 99 nM.
`COC(=O)N[C@@H](C(=O)N1CCC[C@H]1c1ncc(-c2ccc(-c3ccc(-c4[nH]c([C@@H]5CCCN5C(=O)[C@H](NC(=O)OC)c5ccccc5)nc4C(=O)OCc4ccccc4)cc3)cc2)[nH]1)c1ccccc1` [Example J21, benzyl 2-((2S)-1-((2R)-2-((methoxycarbonyl)amino)-2-phenylacetyl)-2-pyrrolidinyl)-5-(4′-(2-((2S)-1-((2R)-2-((methoxycarbonyl)amino)-2-phenylacetyl)-2-pyrrolidinyl)-1H-imidazol-5-yl)-4-biphenylyl)-1H-imidazole-4-carboxylate] was tested, and the EC50 (Hepatitis C virus) was 0.001 to 0.999 nM.
Work on `COC(=O)N[C@@H](C)C(=O)N1CCC[C@H]1c1ncc(-c2ccc(-c3ccc(-c4cnc([C@@H]5CCCN5C(=O)[C@H](NC(=O)OC)c5ccccc5)[nH]4)cc3)cc2F)[nH]1` [Example D38, methyl ((1R)-2-((2S)-2-(5-(3′-fluoro-4′-(2-((2S)-1-(N-(methoxycarbonyl)-L-alanyl)-2-pyrrolidinyl)-1H-imidazol-5-yl)-4-biphenylyl)-1H-imidazol-2-yl)-1-pyrrolidinyl)-2-oxo-1-phenylethyl)carbamate] yielded an EC50 (Hepatitis C virus) of 0.001 to 0.999 nM.
`COC(=O)N[C@@H](C(=O)N1CCC[C@H]1c1ncc(-c2ccc(-c3ccc(-c4cnc([C@@H]5CCCN5C(=O)[C@@H](C)NC(C)=O)[nH]4)cc3)cc2)[nH]1)c1ccccc1` [Example 53, methyl ((1R)-2-((2S)-2-(5-(4′-(2-((2S)-1-(N-acetyl-D-alanyl)-2-pyrrolidinyl)-1H-imidazol-5-yl)-4-biphenylyl)-1H-imidazol-2-yl)-1-pyrrolidinyl)-2-oxo-1-phenylethyl)carbamate] showed an EC50 (Hepatitis C virus) of 0.001 to 0.999 nM.
`COC(=O)N[C@@H](C(=O)N1CCC[C@H]1c1ncc(-c2ccc(-c3ccc(-c4cnc([C@@H]5CCCN5C(=O)Cc5ccc(C)cc5)[nH]4)cc3)cc2)[nH]1)c1ccccc1` [Example 84-70, methyl ((1R)-2-((2S)-2-(5-(4′-(2-((2S)-1-((4-methylphenyl)acetyl)-2-pyrrolidinyl)-1H-imidazol-5-yl)-4-biphenylyl)-1H-imidazol-2-yl)-1-pyrrolidinyl)-2-oxo-1-phenylethyl)carbamate] was tested, and the EC50 (Hepatitis C virus) was 1 to 99 nM.
